Test results reported in the supplement of paper PMC4862054.

These molecules were tested on MDA-MB-231 (assay: normalised response (% of control), CellTiter-Glo; higher = more viable cells (100 = DMSO, 0 = benzethonium chloride kill control)). Settings: incubation time: 72 h.
Method in brief: (§1)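 After 72 h with compound in 384-well plates, breast cancer cell lines seeded as 20 µl suspension were read for CellTox Green fluorescence at 485/520 nm. CellTiter-Glo luminescence was then read after 10 min at room temperature. Compound was present at 5 concentrations in 10-fold steps over a 10,000-fold range set per compound, and plates were normalised to 0.1 % DMSO (100) and a positive kill control (0). Values are normalised signals, each at a single concentration.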

Point of comparison: `Nc1ncn([C@H]2C[C@H](O)[C@@H](CO)O2)c(=O)n1` [Decitabine] (10 nM), normalised response 102%. Against it:
- CCc1cncnc1N1CCN(Cc2nc3ccc(C(F)(F)F)cc3[nH]2)CC1 (10 nM) — higher, 108%
- Cc1ccc(-c2cc(C(F)(F)F)nn2-c2ccc(S(N)(=O)=O)cc2)cc1 [Celecoxib] (10 nM) — lower, 100%
- Cc1cnc(NC(=O)Nc2cc(Br)c(C)cc2OC[C@@H]2CNCCO2)cn1 [Rabusertib] (1 nM) — higher, 107%
- Nc1ccccc1NC(=O)c1ccc(CNC(=O)OCc2cccnc2)cc1 [Entinostat] (10 nM) — lower, 98.6%
- O=C(O)C1(C(=O)O)CCC1.[NH2-].[NH2-].[Pt+2] [Carboplatin] (10 nM) — lower, 97%

These molecules were tested on MDA-MB-436 in the same assay as above. Settings: incubation time: 72 h.
Method in brief: as §1

Point of comparison: `Nc1ccccc1NC(=O)c1ccc(CNC(=O)OCc2cccnc2)cc1` [Entinostat] (10 nM), normalised response 102%. Against it:
- Oc1ncc(N(CCCl)CCCl)c(O)n1 [Uracil mustard] (10 nM) — higher, 105%
- N#Cc1ccc(C(c2ccc(C#N)cc2)n2cncn2)cc1 [Letrozole] (10 nM) — lower, 97.1%
- Nc1nc(F)nc2c1ncn2[C@@H]1O[C@H](CO)[C@@H](O)[C@@H]1O [Fludarabine] (10 nM) — higher, 109%
- CCCCC(=O)OCC(=O)[C@]1(O)Cc2c(O)c3c(c(O)c2[C@@H](O[C@H]2C[C@H](NC(=O)C(F)(F)F)[C@H](O)[C@H](C)O2)C1)C(=O)c1c(OC)cccc1C3=O [Valrubicin] (5 nM) — lower, 101%
- COc1cc([C@@H]2c3cc4c(cc3[C@@H](O[C@@H]3O[C@@H]5CO[C@@H](c6cccs6)O[C@H]5[C@H](O)[C@H]3O)[C@H]3COC(=O)[C@H]23)OCO4)cc(OC)c1O [Teniposide] (10 nM) — lower, 89.7%
- CCc1cncnc1N1CCN(Cc2nc3ccc(C(F)(F)F)cc3[nH]2)CC1 (10 nM) — higher, 109%
- Cc1ccc(-c2cc(C(F)(F)F)nn2-c2ccc(S(N)(=O)=O)cc2)cc1 [Celecoxib] (10 nM) — higher, 105%
- Cc1cnc(NC(=O)Nc2cc(Br)c(C)cc2OC[C@@H]2CNCCO2)cn1 [Rabusertib] (1 nM) — higher, 104%
- Nc1ncn([C@H]2C[C@H](O)[C@@H](CO)O2)c(=O)n1 [Decitabine] (10 nM) — lower, 97.3%
- O=C(O)C1(C(=O)O)CCC1.[NH2-].[NH2-].[Pt+2] [Carboplatin] (10 nM) — lower, 95.4%

What follows are molecules tested on MDA-MB-453 in the same assay as above. Settings: incubation time: 72 h.
Method in brief: as §1

Point of comparison: `COc1cc([C@@H]2c3cc4c(cc3[C@@H](O[C@@H]3O[C@@H]5CO[C@@H](c6cccs6)O[C@H]5[C@H](O)[C@H]3O)[C@H]3COC(=O)[C@H]23)OCO4)cc(OC)c1O` [Teniposide] (10 nM), normalised response 101%. Against it:
- Oc1ncc(N(CCCl)CCCl)c(O)n1 [Uracil mustard] (10 nM) — lower, 88.8%
- N#Cc1ccc(C(c2ccc(C#N)cc2)n2cncn2)cc1 [Letrozole] (10 nM) — higher, 102%
- Nc1nc(F)nc2c1ncn2[C@@H]1O[C@H](CO)[C@@H](O)[C@@H]1O [Fludarabine] (10 nM) — higher, 103%
- CCCCC(=O)OCC(=O)[C@]1(O)Cc2c(O)c3c(c(O)c2[C@@H](O[C@H]2C[C@H](NC(=O)C(F)(F)F)[C@H](O)[C@H](C)O2)C1)C(=O)c1c(OC)cccc1C3=O [Valrubicin] (5 nM) — higher, 103%
- CCc1cncnc1N1CCN(Cc2nc3ccc(C(F)(F)F)cc3[nH]2)CC1 (10 nM) — higher, 110%
- Cc1ccc(-c2cc(C(F)(F)F)nn2-c2ccc(S(N)(=O)=O)cc2)cc1 [Celecoxib] (10 nM) — higher, 115%
- Cc1cnc(NC(=O)Nc2cc(Br)c(C)cc2OC[C@@H]2CNCCO2)cn1 [Rabusertib] (1 nM) — higher, 109%
- Nc1ncn([C@H]2C[C@H](O)[C@@H](CO)O2)c(=O)n1 [Decitabine] (10 nM) — lower, 97.7%
- Nc1ccccc1NC(=O)c1ccc(CNC(=O)OCc2cccnc2)cc1 [Entinostat] (10 nM) — lower, 94.6%
- O=C(O)C1(C(=O)O)CCC1.[NH2-].[NH2-].[Pt+2] [Carboplatin] (10 nM) — lower, 99.7%

What follows are molecules tested on MDA-MB-468 in the same assay as above. Settings: incubation time: 72 h.
Method in brief: as §1

Point of comparison: `Nc1nc(F)nc2c1ncn2[C@@H]1O[C@H](CO)[C@@H](O)[C@@H]1O` [Fludarabine] (10 nM), normalised response 105%. Against it:
- Oc1ncc(N(CCCl)CCCl)c(O)n1 [Uracil mustard] (10 nM) — lower, 90.3%
- N#Cc1ccc(C(c2ccc(C#N)cc2)n2cncn2)cc1 [Letrozole] (10 nM) — lower, 99.6%
- CCCCC(=O)OCC(=O)[C@]1(O)Cc2c(O)c3c(c(O)c2[C@@H](O[C@H]2C[C@H](NC(=O)C(F)(F)F)[C@H](O)[C@H](C)O2)C1)C(=O)c1c(OC)cccc1C3=O [Valrubicin] (5 nM) — lower, 93.1%
- COc1cc([C@@H]2c3cc4c(cc3[C@@H](O[C@@H]3O[C@@H]5CO[C@@H](c6cccs6)O[C@H]5[C@H](O)[C@H]3O)[C@H]3COC(=O)[C@H]23)OCO4)cc(OC)c1O [Teniposide] (10 nM) — lower, 98.3%
- CCc1cncnc1N1CCN(Cc2nc3ccc(C(F)(F)F)cc3[nH]2)CC1 (10 nM) — lower, 101%
- Cc1ccc(-c2cc(C(F)(F)F)nn2-c2ccc(S(N)(=O)=O)cc2)cc1 [Celecoxib] (10 nM) — lower, 100%
- Cc1cnc(NC(=O)Nc2cc(Br)c(C)cc2OC[C@@H]2CNCCO2)cn1 [Rabusertib] (1 nM) — lower, 94.9%
- Nc1ncn([C@H]2C[C@H](O)[C@@H](CO)O2)c(=O)n1 [Decitabine] (10 nM) — lower, 96%
- Nc1ccccc1NC(=O)c1ccc(CNC(=O)OCc2cccnc2)cc1 [Entinostat] (10 nM) — lower, 98.4%
- O=C(O)C1(C(=O)O)CCC1.[NH2-].[NH2-].[Pt+2] [Carboplatin] (10 nM) — lower, 96.8%

What follows are molecules tested on MFM-223 in the same assay as above. Settings: incubation time: 72 h.
Method in brief: as §1

Point of comparison: `CCCCC(=O)OCC(=O)[C@]1(O)Cc2c(O)c3c(c(O)c2[C@@H](O[C@H]2C[C@H](NC(=O)C(F)(F)F)[C@H](O)[C@H](C)O2)C1)C(=O)c1c(OC)cccc1C3=O` [Valrubicin] (5 nM), normalised response 105%. Against it:
- Oc1ncc(N(CCCl)CCCl)c(O)n1 [Uracil mustard] (10 nM) — lower, 103%
- N#Cc1ccc(C(c2ccc(C#N)cc2)n2cncn2)cc1 [Letrozole] (10 nM) — lower, 103%
- Nc1nc(F)nc2c1ncn2[C@@H]1O[C@H](CO)[C@@H](O)[C@@H]1O [Fludarabine] (10 nM) — higher, 110%
- COc1cc([C@@H]2c3cc4c(cc3[C@@H](O[C@@H]3O[C@@H]5CO[C@@H](c6cccs6)O[C@H]5[C@H](O)[C@H]3O)[C@H]3COC(=O)[C@H]23)OCO4)cc(OC)c1O [Teniposide] (10 nM) — lower, 98%
- CCc1cncnc1N1CCN(Cc2nc3ccc(C(F)(F)F)cc3[nH]2)CC1 (10 nM) — lower, 103%
- Cc1ccc(-c2cc(C(F)(F)F)nn2-c2ccc(S(N)(=O)=O)cc2)cc1 [Celecoxib] (10 nM) — lower, 102%
- Cc1cnc(NC(=O)Nc2cc(Br)c(C)cc2OC[C@@H]2CNCCO2)cn1 [Rabusertib] (1 nM) — higher, 113%
- Nc1ncn([C@H]2C[C@H](O)[C@@H](CO)O2)c(=O)n1 [Decitabine] (10 nM) — lower, 103%
- Nc1ccccc1NC(=O)c1ccc(CNC(=O)OCc2cccnc2)cc1 [Entinostat] (10 nM) — lower, 103%
- O=C(O)C1(C(=O)O)CCC1.[NH2-].[NH2-].[Pt+2] [Carboplatin] (10 nM) — lower, 98.4%
